Paper PMC8686256, “DZNep promotes mouse bone defect healing via enhancing both osteogenesis and osteoclastogenesis” (Stem Cell Research & Therapy, 2021)

Tests used:
Type in all cases: cell-based, mouse
[1] = system: Wnt signaling pathway-related and osteoblast-specified genes in BMSC; assay: qPCR of Wnt and osteoblast genes in BMSC
Method: BMMs were cultured in 6-well plates at the density of 2 × 10^5 cells/well in α-MEM supplemented with M-CSF (30 ng/ml), RANKL (50 ng/ml). The cells were then treated with or without 25 nM DZNep for 0, 1, 3, 5 days, or with various concentrations of DZNEP (0, 6.25, 25 nM) for 5 days, or with negative control siRNA, negative control siRNA with DZNep, and Foxc1 small interfering RNA (siRNA) with DZNep for 5 days. Once the culture completed, the Axygen RNA Miniprep Kit (Axygen, Union City, CA, USA) was used to extract the total RNA. BMSC were seeded in a 6-well plate at a number of 4 × 10^5 cells/well and treated with 0, 25, 50, 100 nM of DZNep combined with osteoblast-cultured medium for 24 h, or with or without 100 nM DZNep combined with osteoblast-cultured medium for 0 and 7 days, or with negative control siRNA, negative control siRNA with DZNep, and Wnt4 small interfering RNA (siRNA) with DZNep combined with osteoblast-cultured medium for 7 days. Once the culture completed, the Axygen RNA Miniprep Kit (Axygen, Union City, CA, USA) was used to extract the total RNA. After reverse transcription to obtain cDNA from the RNA template by using the Prime Script RT reagent Kit was finished. The real-time PCR assay was subsequently performed by using the SYBR® Premix Ex Taq™ II on an ABI 7500 Sequencing Detection System (Applied Biosystems, Foster City, CA). Specifically, total volume of 10 μl liquid consisted by 5 μl of SYBR® Premix Ex Taq™ II, 1 μl of diluted cDNA, 0.4 μl of mixed forward and reverse primer, and 3.6 μl of ddH2O was added into each hole of 384 PCR plate. Conditions of the 40 cycles were: 95 °C for 5 s and 60 °C for 30 s. The melting curves and reverse transcription PCR (RT-PCR) were the methods to detect the specificity of amplification product. Each target’s quantity, run in triplicate, was normalized to Actin Beta (Actb). […]

[2] = system: EZH2 and H3K27me3; assay: Western blotting of EZH2, H3K27me3 and GSK-3β in BMSC
[3] = system: primary BMSC; assay: Osteoblast differentiation and mineralization, ALP and Alizarin red staining
Method: Primary BMSC were obtained from the whole bone marrow of male 4-week-old C57BL/6 mice. In brief, cells were extracted from the tibiae and femurs bone marrow and suspended in α-MEM supple with 10% FBS, and 1% penicillin/streptomycin. Then, the cell cultures were kept in a humid environment at 37 °C with 5% CO2 until they reached 90% confluence. For further identifying the effect of DZNep on osteogenesis, bone marrow-derived mouse mesenchymal stem cells were firstly seeded into the 48-well plates for one day at a density of 5 × 10^4 cells/well. Then the medium was changed by low-glucose DMEM with 15% FBS, 5 mM β-glycerophosphate, 50 µg/mL ascorbic acid, 10-7 mM dexamethasone, and various concentrations of DZNep (0, 12.5, 25, 50, and 100 nM). The medium was changed twice a week. For EZH2 gene knockdown studies, the cells were transfected with virus constructed of different EZH2 short hairpin RNA (shRNA) and negative control shRNA by mixed with polybrene (final concentration of 10ug/ml) for 48 h. The transfection mixture was then replaced by complete α-MEM added with puromycin for 24 h, and BMSCs were then seeded into a 48-well plate at the density of 5 × 10^4 cells/well with complete α-MEM for 24 h. The culture medium was then replaced by low-glucose DMEM with 15% FBS, 5 mM β-glycerophosphate, 50 µg/mL ascorbic acid, 10-7 mM dexamethasone. The medium was changed twice a week. […]

[4] = system: BMMs; assay: RANKL-induced osteoclast differentiation, TRAP staining
Method: To evaluate the role of DZNep on osteoclastogenesis, BMMs were seeded into, in triplicate, a 96-well plate at the density of 8 × 10^3 cells/well with complete α-MEM for one day. Afterward, the culture medium was replaced by the complete α-MEM containing different concentrations of DZNep (control, 3.125, 6.25, 12.5, and 25 nM) and RANKL (50 ng/ml) to stimulate osteoclast differentiation. Cells untreated with DZNep were included as the control group. Moreover, the BMMs treated with or without DZNep for various days were also analyzed. For EZH2 gene knockdown studies, the cells were transfected with virus constructed of different EZH2 short hairpin RNA (shRNA) and negative control shRNA by mixed with polybrene (final concentration of 10ug/ml) for 48 h. The transfection mixture was then replaced by complete α-MEM added with puromycin for 24 h, and BMMs were then seeded into a 96-well plate at the density of 1 × 10^4 cells/well with complete α-MEM. The culture medium was then replaced every 2 days until the matured osteoclasts could be observed in the plate. For Foxc1 inhibition experiment, the cells were separately transfected with negative control siRNA, negative control siRNA with DZNep, and Foxc1 small interfering RNA (siRNA) with DZNep and by mixed with transfection reagent and osteoclast culture medium. The transfection mixture was then replaced every 2 days until the matured osteoclasts could be observed in the plate. The plate was then washed by PBS 1 times and fixed with 4% paraformaldehyde for 15 min. TRAP staining was performed immediately without light at 37 °C for 30 min. An optical microscope (Olympus, Tokyo, Japan) was used to image the photographs, and the TRAP-positive cells with more than three nuclei were considered osteoclasts and were quantified the area and number using the ImageJ software (NIH, Bethesda, MD, USA).

[5] = RANKL, M-CSF, DZNep ≤25 nM, 5 days, vs control

In the case of `Nc1nccc2c1ncn2C1C=C(CO)C(O)C1O` (stereo not shown) [DZNep, 3-Deazaneplanocin], the “expression of Wnt4, Wnt1, Wnt6, Wnt10a (qPCR)” value ([1]; 0, 25, 50, 100 nM, 24 h) is reported as “increased in a concentration-dependent manner”, the “expression of Wnt genes after osteoblast-cultured medium for 7 days” value ([1]; 100 nM, 7 days) is reported as “obviously upregulated” and the “expression of osteoblast-specified genes Runx2, Ocn, Opn, Col1a1” value ([1]; BMSC, 100 nM 0 and 7 days, 0-100 nM 24 h) is reported as “enhanced in a time-dependent and dose-dependent manner”. The “EZH2 and H3k27me3 expression in BMSC” value ([2]; 0, 25, 50, 100 nM, 24 h, vs control) was “dose-dependent decreased”, the “phosphorylation level of GSK-3β” value ([2]; BMSC) was “no significant change” and the “osteoblast differentiation (ALP staining)” value ([3]; 7 days, especially 50 nM) was “promoted”. The “osteoblast mineralization (Alizarin red staining)” value ([3]; 28 days) was “enhanced in a dose-dependent manner”, the “number of osteoclasts, treatment at specific time points” value ([4]; 25 nM, day 3–5, vs control) was “increased the number of osteoclasts at the middle stage” and the “number of mature osteoclast nuclei” value [4, 5] was “increased in a dose-dependent manner significantly”. The “number of mature osteoclasts” value [4, 5] was “increased the number of mature osteoclasts in a DZNep dose-dependent manner”.
